The results in this text go back to patent US20130116287A1 (priority 2010, published 2013).

One series has as its system Phytophthora infestans. In kind it is in vivo. The note with it: 500 ppm of active ingredient; tomato, preventive; evaluated 7 days after inoculation; 100% = no disease.
Series [1] in a line: Measurement of logP values by HPLC on reversed phase columns (EEC directive 79/831 Annex V.A8). To be noted: for Log P: pH 2.7, 0.1% formic acid in water / acetonitrile, single value. Format: physicochemical.
The next series concerns Plasmopara viticola. The series can be described thus: Plasmopara test (grapevines) / preventive. To be noted: 100 ppm of active ingredient, evaluated 6 days after inoculation, 100% = no disease. Format: in vivo. The procedure: Plasmopara Test (Grapevines)/Preventive
Solvent: 24.5 parts by weight of acetone
24.5 parts by weight of dimethylacetamide
Emulsifier: 1 part by weight of alkylaryl polyglycol ether
To produce a suitable preparation of active compound, 1 part by weight of active compound is mixed with the stated amounts of solvent and emulsifier, and the concentrate is diluted with water to the desired concentration.
To test for preventive activity, young plants are sprayed with the preparation of active compound at the stated rate of application. After the spray coating has dried on, the plants are inoculated with an aqueous spore suspension of Plasmopara viticola and then remain for 1 day in an incubation cabinet at approximately 20° C. and a relative atmospheric humidity of 100%. The plant is subsequently placed for 4 days in a greenhouse at approximately 21° C. and a relative atmospheric humidity of approximately 90%. The plants are then misted and placed for 1 day in an incubation cabinet.
The test is evaluated 6 days after the inoculation. 0% means an efficacy which corresponds to that of the untreated control, while an efficacy of 100% means that no disease is observed.

Read-outs that look alike come from different tables or passages of the source.

Turning to `COc1ccccc1OCC(=O)Nc1nc(CON=C(c2ccccc2)c2nnsc2C)cs1` (mixture of isomers) [Example 57], the efficacy was 100% in the series with Phytophthora infestans and 72% in the series with Plasmopara viticola. Further, the “Log P [I1] main isomer” value in series [1] (HPLC, pH 2.7, 0.1% formic acid, main isomer) worked out at 3.89. Further, the “Log P [I2] minor isomer” value in series [1] (HPLC, pH 2.7, 0.1% formic acid, minor isomer) turned out to be 3.78.

A word on the Log P: it is the decadic logarithm of the partition coefficient of the neutral form, usually between octanol and water. A high value points to higher lipophilicity. In the case of `Cc1snnc1C(=NOCc1cccc(NC(=O)C(F)(F)Oc2ccccc2)n1)c1ccccc1` [Example 2], the efficacy with Phytophthora infestans is recorded as 100%; with Plasmopara viticola it was 74%. Moreover, the log partition coefficient (Log P) in series [1] (HPLC) worked out at 4.54.

Regarding `Cc1snnc1C(=NOCc1csc(NC(=O)COCCC(C)C)n1)c1ccccc1` [Example 3], the efficacy was determined as 95% in the series with Phytophthora infestans and 84% with Plasmopara viticola. Moreover, in series [1] (HPLC), the “Log P” value was 4.36.

Take `Cc1snnc1C(=NOCc1csc(NC(=O)COc2ccccc2)n1)c1ccccc1` [Example 8]: the efficacy in the series on Phytophthora infestans was determined as 100%; in the series on Plasmopara viticola it was 72%. The “Log P” value in series [1] (HPLC) was determined as 3.8.

Turning to `Cc1snnc1C(=NOCc1csc(NC(=O)C(C)Oc2ccccc2)n1)c1ccccc1` (stereo not drawn) [Example 15], the efficacy is listed as 100% with Phytophthora infestans and 93% with Plasmopara viticola. Also, in series [1] (HPLC), the “Log P” value is 4.04.

In the case of `Cc1snnc1C(=NOCc1csc(NC(=O)COC2CCCC2)n1)c1ccccc1` [Example 23], the efficacy in the series on Phytophthora infestans is reported as 95%; with Plasmopara viticola, 91%. For the same compound, in series [1] (HPLC), the “Log P” value came to 4.09.

Consider `C=CCOC(C)C(=O)Nc1nc(CON=C(c2ccccc2)c2nnsc2C)cs1` (stereo not drawn) [Example 25], for which the efficacy is listed as 98% in the series with Phytophthora infestans and 77% in the series on Plasmopara viticola. For the same compound, the “Log P” value in series [1] (HPLC) was found to be 3.61.

Turning to `Cc1snnc1C(=NOCc1csc(NC(=O)COCc2ccccc2)n1)c1ccccc1` [Example 27], the results for the efficacy in the series with Phytophthora infestans and in the series with Plasmopara viticola were 100% and 89%, respectively. Also, in series [1] (HPLC), the “Log P” value is 3.92.

With `Cc1snnc1C(=NOCc1csc(NC(=O)C(C)OCC2CC2)n1)c1ccccc1` (stereo not drawn) [Example 39], the efficacy stood at 97% with Phytophthora infestans and 91% in the series with Plasmopara viticola. Further, the lipophilicity (Log P) in series [1] (HPLC) amounted to 3.83.

Regarding `Cc1snnc1C(=NOCc1csc(NC(=O)COCC2CCC2)n1)c1ccccc1` [Example 53], the efficacy in the series with Phytophthora infestans was determined as 97%; in the series on Plasmopara viticola it was 95%. Moreover, the “Log P” value in series [1] (HPLC) is 4.11.

Turning to `Cc1snnc1C(=NOCc1csc(NC(=O)COC2CCCCC2)n1)c1ccccc1` [Example 59, 2-(cyclohexyloxy)-N-{4-[({[(5-methyl-1,2,3-thiadiazol-4-yl)(phenyl)methylene]amino}oxy)methyl]-1,3-thiazol-2-yl}acetamide], the efficacy in the series with Phytophthora infestans stood at 97%; in the series on Plasmopara viticola it was 75%. Moreover, the chromatographic logP in series [1] (pH 2.7, HPLC, pH 2.7, 0.1% formic acid, main isomer, read-out: Log P [I1] main isomer) was found to be 4.41; in series [1] (pH 2.7, HPLC, pH 2.7, 0.1% formic acid, minor isomer, read-out: Log P [I2] minor isomer), 4.32; in series [1] (reversed phase HPLC columns, pH 2.7, mixture of Z and E diastereoisomers, preparation example 1, read-out: logP(HCOOH)), 4.41.

Regarding `Cc1snnc1C(=NOCc1csc(NC(=O)COCC(C)C)n1)c1ccccc1` [Example 63], the efficacy in the series with Phytophthora infestans was 100%; in the series with Plasmopara viticola, 75%. Moreover, the “Log P” value in series [1] (HPLC) is 4.01.

Turning to `Cc1snnc1C(=NOCc1csc(NC(=O)COC(C)C)n1)c1ccccc1` [Example 65], the efficacy came to 95% in the series with Phytophthora infestans and 84% in the series with Plasmopara viticola. The “Log P” value in series [1] (HPLC) was 3.59.
